Data taken from ChEMBL document CHEMBL3045112, “In vitro antimicrobial assessment of coumarin-based s-triazinyl piperazines” (2012).
Converted amounts (≈) assume the structure as drawn.

Assays:
[1] = test system: Aspergillus niger; experiment: Antifungal activity against Aspergillus niger at 100 ug/disk after 48 hr by disk diffusion test; format: functional; settings: read-out: IZ
[2] = test system: Aspergillus niger; experiment: Antifungal activity against Aspergillus niger after 48 hr by agar plate method; format: functional
[3] = test system: Candida albicans; experiment: Antifungal activity against Candida albicans at 100 ug/disk after 48 hr by disk diffusion test; format: functional; settings: read-out: IZ
[4] = test system: Candida albicans; experiment: Antifungal activity against Candida albicans after 48 hr by agar plate method; format: functional
[5] = test system: Pseudomonas aeruginosa; experiment: Antibacterial activity against Pseudomonas aeruginosa at 100 ug/disk after 24 hr by disk diffusion test; settings: read-out: IZ
[6] = test system: Bacillus subtilis; experiment: Antibacterial activity against Bacillus subtilis after 24 hr by agar plate method; format: functional
[7] = test system: Escherichia coli; experiment: Antibacterial activity against Escherichia coli at 100 ug/disk after 24 hr by disk diffusion test; settings: read-out: IZ
[8] = test system: Staphylococcus aureus; experiment: Antibacterial activity against Staphylococcus aureus at 100 ug/disc after 24 hr by disk diffusion test; settings: read-out: IZ
[9] = test system: Bacillus subtilis; experiment: Antibacterial activity against Bacillus subtilis at 100 ug/disk after 24 hr by disk diffusion test; settings: read-out: IZ
[10] = test system: Staphylococcus aureus; experiment: Antibacterial activity against Staphylococcus aureus after 24 hr by agar plate method; format: functional
[11] = test system: Escherichia coli; experiment: Antibacterial activity against Escherichia coli after 24 hr by agar plate method; format: functional
[12] = test system: Pseudomonas aeruginosa; experiment: Antibacterial activity against Pseudomonas aeruginosa after 24 hr by agar plate method; format: functional

Row | SMILES | zone of inhibition at 100 µg/disc [1] [mm] | MIC [2] [µg/mL] | zone of inhibition at 100 µg/disc [3] [mm] | MIC [4] [µg/mL] | zone of inhibition at 100 µg/disc [5] [mm] | MIC [6] [µg/mL] | zone of inhibition at 100 µg/disc [7] [mm] | zone of inhibition at 100 µg/disc [8] [mm] | zone of inhibition at 100 µg/disc [9] [mm] | MIC [10] [µg/mL] | MIC [11] [µg/mL] | MIC [12] [µg/mL]
1 | CC(=O)N1CCN(c2ccc(OCC3COC(Cn4ccnc4)(c4ccc(Cl)cc4Cl)O3)cc2)CC1 (configuration not stated) [KETOCONAZOLE] | 30 | 6.25 (≈ 11.8 µM) | 33 | 3.12 (≈ 5.88 µM) |  |  |  |  |  |  |  | 
2 | O=C(O)c1cn(C2CC2)c2cc(N3CCNCC3)c(F)cc2c1=O [CIPROFLOXACIN] |  |  |  |  | 33 | 3.12 (≈ 9.43 µM) | 32 | 29 | 29 | 3.12 (≈ 9.43 µM) | 3.12 (≈ 9.43 µM) | 3.12 (≈ 9.43 µM)
